This is an account of results in ChEMBL document CHEMBL5614394, “Novel pleuromutilin derivatives conjugated with phenyl-sulfide and boron-containing moieties as potent antibacterial agents against antibiotic-resistant bacteria” (Eur J Med Chem, 2024).

Data set [1] relates to Staphylococcus aureus. Briefly: Antibacterial activity against Staphylococcus aureus ATCC 29213 assessed as inhibition of visible growth of bacteria incubated for 24 hrs by CLSI protocol based broth-dilution method. It is filed as functional.
In data set [2] the test system is Staphylococcus epidermidis. Briefly: Antibacterial activity against Staphylococcus epidermidis ATCC 12228 assessed as inhibition of visible growth of bacteria incubated for 24 hrs by CLSI protocol based broth-dilution method. It is filed as functional.
Data set [3] has as its system Staphylococcus aureus. Briefly: Antibacterial activity against Staphylococcus aureus USA 300 assessed as inhibition of visible growth of bacteria incubated for 24 hrs by CLSI protocol based broth-dilution method. It is filed as functional.
Data set [4] has as its system Staphylococcus aureus. Kind of data set: Antibacterial activity against methicilin-resistant Staphylococcus aureus isolate 15-2 assessed as inhibition of visible growth of bacteria incubated for 24 hrs by CLSI protocol based broth-dilution method. Format: functional.
In data set [5] the test system is Staphylococcus aureus. Kind of data set: Antibacterial activity against Staphylococcus aureus ATCC 25923 assessed as inhibition of visible growth of bacteria incubated for 24 hrs by CLSI protocol based broth-dilution method. It is filed as functional.
Data set [6] relates to Staphylococcus aureus. Kind of data set: Antibacterial activity against Staphylococcus aureus ATCC 33591 assessed as inhibition of visible growth of bacteria incubated for 24 hrs by CLSI protocol based broth-dilution method. Format: functional.
Data set [7] has as its system Staphylococcus aureus. Briefly: Antibacterial activity against Staphylococcus aureus ATCC 43300 assessed as inhibition of visible growth of bacteria incubated for 24 hrs by CLSI protocol based broth-dilution method. Format: functional.
Data set [8] deals with Staphylococcus aureus. Kind of data set: Antibacterial activity against Staphylococcus aureus ATCC 700788 assessed as inhibition of visible growth of bacteria incubated for 24 hrs by CLSI protocol based broth-dilution method. Format: functional.
For data set [9], the system named is Staphylococcus aureus. Briefly: Antibacterial activity against Staphylococcus aureus ATCC 700699 assessed as inhibition of visible growth of bacteria incubated for 24 hrs by CLSI protocol based broth-dilution method. Format: functional.
In data set [10] the test system is Streptococcus pneumoniae. Briefly: Antibacterial activity against penicillin resistant Streptococcus pneumoniae isolate 20-1 assessed as inhibition of visible growth of bacteria incubated for 24 hrs by CLSI protocol based broth-dilution method. It is filed as functional.
For data set [11], the system named is Streptococcus pneumoniae. Kind of data set: Antibacterial activity against penicillin resistant Streptococcus pneumoniae isolate 20-2 assessed as inhibition of visible growth of bacteria incubated for 24 hrs by CLSI protocol based broth-dilution method. Format: functional.
Data set [12] relates to Streptococcus pneumoniae. Briefly: Antibacterial activity against penicillin resistant Streptococcus pneumoniae isolate 20-3 assessed as inhibition of visible growth of bacteria incubated for 24 hrs by CLSI protocol based broth-dilution method. Format: functional.
Data set [13] has as its system Streptococcus pneumoniae. Briefly: Antibacterial activity against penicillin resistant Streptococcus pneumoniae isolate 20-4 assessed as inhibition of visible growth of bacteria incubated for 24 hrs by CLSI protocol based broth-dilution method. It is filed as functional.
Data set [14] has as its system Streptococcus pneumoniae. Kind of data set: Antibacterial activity against penicillin sensitive Streptococcus pneumoniae isolate 20-1 assessed as inhibition of visible growth of bacteria incubated for 24 hrs by CLSI protocol based broth-dilution method. It is filed as functional.
The subject of data set [15] is Staphylococcus epidermidis. Briefly: Antibacterial activity against methicillin-sensitive Staphylococcus epidermidis isolate 20-15 assessed as inhibition of visible growth of bacteria incubated for 24 hrs by CLSI protocol based broth-dilution method. Format: functional.
For data set [16], the system named is Enterococcus faecalis. Briefly: Antibacterial activity against Enterococcus faecalis ATCC 29212 assessed as inhibition of visible growth of bacteria incubated for 24 hrs by CLSI protocol based broth-dilution method. It is filed as functional.
Data set [17] deals with Enterococcus faecalis. Kind of data set: Antibacterial activity against Enterococcus faecalis HB 24-4 assessed as inhibition of visible growth of bacteria incubated for 24 hrs by CLSI protocol based broth-dilution method. It is filed as functional.
A further data set relates to Escherichia coli. Kind of data set: Antibacterial activity against Escherichia coli ATCC 25922 assessed as inhibition of visible growth of bacteria incubated for 24 hrs by CLSI protocol based broth-dilution method. It is filed as functional.
A further data set concerns Acinetobacter baumannii. Kind of data set: Antibacterial activity against Acinetobacter baumannii ATCC 19606 assessed as inhibition of visible growth of bacteria incubated for 24 hrs by CLSI protocol based broth-dilution method. It is filed as functional.
The subject of data set [18] is Enterococcus faecium. Briefly: Antibacterial activity against pleuromutilin-resistant Enterococcus faecium 18SC29-2 harboring (lsa(E)-) genotype assessed as inhibition of visible growth of bacteria incubated for 24 hrs by CLSI protocol based broth-dilution method. Format: functional.
Data set [19] concerns Enterococcus faecium. Kind of data set: Antibacterial activity against pleuromutilin-resistant Enterococcus faecium 18FJZ1-1 harboring (lsa(E)+) genotype assessed as inhibition of visible growth of bacteria incubated for 24 hrs by CLSI protocol based broth-dilution method. It is filed as functional.
In data set [20] the test system is Staphylococcus aureus. Briefly: Antibacterial activity against methicillin-resistant Staphylococcus aureus J1 harboring (lsa(E)+) genotype assessed as inhibition of visible growth of bacteria incubated for 24 hrs by CLSI protocol based broth-dilution method. Format: functional.
Another data set relates to Staphylococcus simulans. Briefly: Antibacterial activity against pleuromutilin-resistant Staphylococcus simulans isolate 55-1 harboring cfr+ genotype assessed as inhibition of visible growth of bacteria incubated for 24 hrs by CLSI protocol based broth-dilution method. Format: functional.
For data set [21], the system named is Staphylococcus aureus. Briefly: Antibacterial activity against methicillin-resistant Staphylococcus aureus USA 300 assessed as inhibition of bacterial growth at 1 times of MIC measured upto 24 hrs by time-kill kinetics assay. It is filed as functional, organism-based.
The subject of data set [22] is Staphylococcus aureus. Kind of data set: Bactericidal activity against methicillin-resistant Staphylococcus aureus USA 300 assessed as inhibition of bacterial growth at 8 times of MIC by time kill kinetics assay. It is filed as functional, organism-based. Particulars: time <= 24.0 hrs, TDE = time-dependent effect.
Data set [23] is described as follows: Stability in mouse liver microsomes assessed as drug metabolism at 1 uM measured within 1 hrs in presence of NADPH by LC-MS analysis. Format: ADME, Microsome. Particulars: read-out: Drug metabolism.
Data set [24] is described as follows: Stability in rat liver microsomes assessed as drug metabolism at 1 uM measured within 1 hrs in presence of NADPH by LC-MS analysis. Format: ADME, Microsome. Particulars: read-out: Drug metabolism.
Data set [25] is described as follows: Stability in human liver microsomes assessed as drug metabolism at 1 uM measured within 1 hrs in presence of NADPH by LC-MS analysis. Format: ADME, Microsome. Particulars: read-out: Drug metabolism.
Data set [26] has as its system Staphylococcus aureus. Briefly: Antibacterial activity against methicillin resistant Staphylococcus aureus USA 300 infected in peritonitis sepsis CD-1 mouse model assessed as mouse survival rate at 40 mg/kg, iv administered as single dose and measured after 7 days relative to control. It is filed as functional. Particulars: USA 300, 168 h, time 7 day.
The test system of data set [27] is Staphylococcus aureus. Kind of data set: Antibacterial activity against methicillin resistant Staphylococcus aureus USA 300 infected in peritonitis sepsis CD-1 mouse model assessed as mouse survival rate at 40 mg/kg, iv administered as double dose with 6 hrs interval and measured after 7 days relative to control. Format: functional. The following applies: USA 300, 168 h, time 7 day.

The nature of data set [28]: Acute toxicity in male CD-1 mouse assessed as effect on survival at 40 mg/kg, iv administered as single dose for 7 days. It is filed as organism-based. The following applies: in vivo, 168 h, time 7 day.
Data set [29] concerns Staphylococcus aureus. Kind of data set: Antibacterial activity against methicillin-resistant Staphylococcus aureus USA 300 assessed as number of colonies with prevalence of spontaneous mutation at 4 times of MIC incubated for 48 hrs by agar dilution assay. It is filed as functional.
Data set [30] has as its system Staphylococcus aureus. Briefly: Antibacterial activity against methicillin-resistant Staphylococcus aureus USA 300 assessed as number of colonies with prevalence of spontaneous mutation at 8 times of MIC incubated for 48 hrs by agar dilution assay. It is filed as functional.
The next data set deals with HEK293. Briefly: Cytotoxicity against HEK293 cells incubated for 48 hrs by MTT assay. Format: toxicity, cell-based. Particulars: human, hek293, 48 h.
The next data set concerns HUVEC. Kind of data set: Cytotoxicity against HUVEC cells incubated for 48 hrs by MTT assay. It is filed as toxicity, cell-based. The following applies: human.

In brackets after ≈: the same amount, converted by molar mass. Activity calls are given as the source filed them. The rule behind the calls is not given here. Bounds are passed on as bounds.

With `C=C[C@]1(C)C[C@@H](OC(=O)CSc2cccc(NC(=O)c3ccc4c(c3)B(O)OC4)c2)[C@]2(C)[C@H](C)CC[C@]3(CCC(=O)[C@H]32)[C@@H](C)[C@@H]1O`, the MIC is ≤ 0.016 µg/mL in the data set on Staphylococcus aureus [1]; 0.016 µg/mL (≈ 0.0248 µM) in [2]; ≤ 0.03 µg/mL with Staphylococcus aureus [3]; ≤ 0.03 µg/mL in the data set on Staphylococcus aureus [4]; ≤ 0.03 µg/mL with Staphylococcus aureus [5]; ≤ 0.03 µg/mL in the data set with Staphylococcus aureus [6]. In addition, the MIC in the data set with Staphylococcus aureus [7] is ≤ 0.03 µg/mL; with Staphylococcus aureus [8], ≤ 0.03 µg/mL; in the data set with Staphylococcus aureus [9], ≤ 0.03 µg/mL; in the data set with Streptococcus pneumoniae [10], 0.06 µg/mL (≈ 0.0929 µM); in the data set with Streptococcus pneumoniae [11], 0.06 µg/mL (≈ 0.0929 µM); in the data set on Streptococcus pneumoniae [12] it was ≤ 0.03 µg/mL. The MIC is 0.06 µg/mL (≈ 0.0929 µM) with Streptococcus pneumoniae [13]; 0.06 µg/mL (≈ 0.0929 µM) in the data set on Streptococcus pneumoniae [14]; ≤ 0.03 µg/mL in data set [15]; 1 µg/mL (≈ 1.55 µM) with Enterococcus faecalis [16]; 0.25 µg/mL (≈ 0.387 µM) with Enterococcus faecalis [17]; 32 µg/mL (≈ 49.6 µM) with Escherichia coli. Further, the MIC in the data set with Acinetobacter baumannii is > 64 µg/mL; with Enterococcus faecium [18] it was ≤ 0.03 µg/mL; with Enterococcus faecium [19], 2 µg/mL (≈ 3.1 µM); in the data set on Staphylococcus aureus [20], 4 µg/mL (≈ 6.2 µM); in the data set on Staphylococcus simulans it was 1 µg/mL (≈ 1.55 µM). Besides, in the data set with Staphylococcus aureus [21], the outcome was Active. Besides, the Activity result in the data set with Staphylococcus aureus [22] was “Tde”; in data set [28], “Non-Toxic”; in the data set on Staphylococcus aureus [29], <4.7 10^-11No_unit; with Staphylococcus aureus [30] it was <4.7 10^-11No_unit; with HEK293, “Non-Toxic”; with HUVEC, “Non-Toxic”. In addition, the metabolised at 1 h, 1 µM in [23] is 67.2%; in data set [24], 52.7%; in data set [25], 51.1%. Further, the survival at 40 mg/kg in the data set on Staphylococcus aureus [26] was found to be 17%; in the data set on Staphylococcus aureus [27] it was 50%.
In the case of `C=C[C@]1(C)C[C@@H](OC(=O)CS[C@@H]2C[C@H]3CC[C@@H](C2)N3C)[C@]2(C)[C@H](C)CC[C@]3(CCC(=O)[C@H]32)[C@@H](C)[C@@H]1O` [RETAPAMULIN], the MIC was 0.125 µg/mL (≈ 0.241 µM) in the data set on Enterococcus faecium [18], 32 µg/mL (≈ 61.8 µM) in the data set on Enterococcus faecium [19], > 32 µg/mL in the data set with Staphylococcus aureus [20] and 32 µg/mL (≈ 61.8 µM) in the data set with Staphylococcus simulans.
As for `C=C[C@]1(C)C[C@@H](OC(=O)CSC(C)(C)CNC(=O)c2ccc3c(c2)B(O)OC3)[C@]2(C)[C@H](C)CC[C@]3(CCC(=O)[C@H]32)[C@@H](C)[C@@H]1O`, the MIC was determined as 0.063 µg/mL (≈ 0.101 µM) in the data set with Staphylococcus aureus [1]; 0.063 µg/mL (≈ 0.101 µM) in data set [2]; 0.125 µg/mL (≈ 0.2 µM) with Enterococcus faecium [18]; 8 µg/mL (≈ 12.8 µM) in the data set on Enterococcus faecium [19]; 16 µg/mL (≈ 25.6 µM) in the data set on Staphylococcus aureus [20]; 2 µg/mL (≈ 3.2 µM) with Staphylococcus simulans.
